The values below are quoted from earlier work in patent US12208104B2, “Pharmaceutical compositions suitable for articular delivery and use thereof in treatment of joint pain” (TAIWAN LIPOSOME CO., LTD., priority 2018, dated 2025).

In the data set the test system is cartilage. To be noted: repeated intra-articular injections.

On to `C[C@@H]1C[C@H]2[C@@H]3CCC4=CC(=O)C=C[C@]4(C)[C@@]3(F)[C@@H](O)C[C@]2(C)[C@@]1(O)C(=O)CO` [dexamethasone], for which the cartilage damage entry is recorded as “cartilage damage has been reported”. `C[C@]12C=CC(=O)C=C1CC[C@H]1[C@@H]3C[C@@H](O)[C@](O)(C(=O)CO)[C@@]3(C)C[C@H](O)[C@@]12F` [triamcinolone]: the cartilage damage result was “cartilage damage has been reported”.
